{"source": "patent US10201516B2", "about": "(The Regents of the University of California, priority 2014, dated 2019)", "key": {"[1]": {"assay": "Toxicity by body weight changes in treated mice", "assay_type": "in vivo, mouse", "conditions": "oral or i.p. prostratin (FIG. 13D)", "experimental": "(§1) The drug was daily administrated into either NOD-SCID or athymic nude mice by oral gavages (OG) at 1 mg/kg or intraperitoneal (I.P) injection at 0.5 mg/kg. 10% DMSO, 10% cremophor, and 80% saline solutions were used as the solvent and vehicle control."}, "[2]": {"tested_on": "Ras^V12-transformed NIH/3T3 cells", "assay": "Drug sensitization assay (MTS cell viability), Ras-transformed NIH/3T3", "assay_type": "cell-based, mouse", "experimental": "The dead cells were removed, and MTS assay (Promega, G5430) was performed for determining the percentage of viable cells, according to the manufacturer's instructions. DMSO was used as vehicle control and for normalization."}, "[3]": {"tested_on": "CaMKii", "assay": "Western blot of phospho-CaMKii in Ras-transformed NIH/3T3 cells (and human pancreatic cancer cell lines)", "assay_type": "cell-based, mouse", "experimental": "Experimental cells were washed twice in ice-cold PBS and lysed in 1% Triton lysis buffer [25 mmol/L Tris pH 7.5, 150 mmol/L NaCl, 1% Triton X-100, 1 mmol/L EDTA, 1 mmol/L EGTA, 20 mmol/L NaF, 1 mmol/L […], and 1 mmol/L DTT] supplemented with a protease inhibitor cocktail (Roche) and cleared by centrifugation. Protein concentrations were determined by the Bio-Rad Protein Assay (Bio-Rad). Equal amounts of protein extracts were resolved using SDS-PAGE (NuPAGE; Invitrogen), transferred to a nitrocellulose membrane, and immunoblotted with primary antibodies indicated, followed by secondary antibodies labeled with either IRDye800 (Rockland) or Alexa Fluor 680 (Molecular Probes) and were visualized using a LI-COR Odyssey scanner. A complete list of primary antibodies is provided in the Extended Experimental Procedures."}, "[4]": {"conditions": "PKC activators, literature; cited from earlier work"}, "[5]": {"tested_on": "PANC1 and PANC2.13", "assay": "Prevention of subcutaneous human pancreatic xenograft tumors in nude mice", "assay_type": "in vivo, mouse", "experimental": "as §1"}, "[6]": {"tested_on": "LEF1", "assay": "LEF1 mRNA expression in PANC1 and PANC2.13 (qPCR)", "assay_type": "cell-based", "conditions": "human pancreatic cancer cells (FIG. 13B)", "experimental": "(§2) Total RNAs were isolated and purified using QIAGEN RNAeasy kit. 1 μg RNA per specimen was reverse transcribed into cDNA using SuperScript™ First-Strand Synthesis System for RT-PCR (Invitrogen). Possible contamination of genomic DNA was excluded by treatments of DNase I. Quantitative real-time PCR array analysis was performed using SYBR Green (Applied Biosystem). Fold differences and statistical analysis were calculated using the GraphPad Prism 4.00 for Windows (GraphPad Software). The mouse Stem Cell Signaling RT^2Profiler PCR array on 96-well plate (PAMM-047Z) was purchased from SABiosciences."}, "[7]": {"tested_on": "Fzd8", "assay": "Fzd8 mRNA expression in PANC1 and PANC2.13 (qPCR)", "assay_type": "cell-based", "conditions": "human pancreatic cancer cells (FIG. 13B)", "experimental": "as §2"}, "[8]": {"tested_on": "H-Ras^G12V-induced tumors", "assay": "H-Ras^G12V-induced papilloma in LRIG1cre/ER/LSL-Ras^G12V GEMM", "assay_type": "in vivo, mouse", "conditions": "daily treatment (FIG. 7D)", "source_text": "We first used a papilloma model driven by H- or K-Ras^G12V under the control of a skin stem cell promoter, Lrig1 (FIG. 7C) (Jaks et al., Exp Cell Res 316:1422-1428, 2010; Page et al., Cell Stem Cell 13, 471-482, 2013). In this GEMM, tamoxifen inducible Cre recombinase initiates the expression of oncogenic H- or K-Ras^G12V, and the enforced oncogenic Ras expression disrupts the skin hemeostasis during wound healing and further induces papilloma formations (FIG. 7C).\nLrig1 Cre/ER/LSL Hras and Lrig1 Cre/ER/LSL-Kras^G12D mice have been backcrossed into the FVB/N background over multiple generations to minimize the effects of genetic heterogeneity on tumor development. Cre recombinase was activated in both groups of mice by administering a single dose of 4oht (Tamoxifen), topically applied at 8 weeks of age. On day 7 thereafter, wounding was induced on their backs by cutting a 2 cm incision for papilloma development."}, "[9]": {"tested_on": "Ras^V12-transformed NIH/3T3 cells", "assay": "Tumor initiation of Ras^V12-transformed NIH/3T3 cells in nude mice", "assay_type": "in vivo, mouse", "experimental": "All experiments were approved by the IACUC of the University of California, San Francisco. Ras^V12-transformed NIH/3T3 cells were subcutaneously injected in female nude mice (Nu/Nu) at 50, 100 or 1,000 cells per flank. Palpable tumors were measured twice a week. The animals were divided into five mice per group. Pancreatic adenocarcinoma cells derived from Braf^CA and Kras^LSL-G12D mice are provided by Eric Collisson, and genotyped as described (Collison et al., Nat Med 17:500-503, 2011; Dankort et al., Genes Dev 21:379-384, 2007; Hingorani et al., Cancer Cell 4:[…], 2003). One hundred cells were orthotopically implanted in 6- to 8-week-old FVB/n mice in 20 μL 50% Matrigel using a 28.5-gauge needle. Mice were monitored for one month and were euthanized when distressed.\nas §1"}, "[10]": {"tested_on": "PANC2.13 and PANC1 orthotopic tumors", "assay": "Prevention of orthotopic human pancreatic tumors in NOD-SCID mice", "assay_type": "in vivo, mouse", "experimental": "as §1"}, "[11]": {"tested_on": "PANC2.13 and PANC2.03 orthotopic tumors", "assay": "Established orthotopic human pancreatic tumors, burden by human cfDNA in plasma", "assay_type": "in vivo, mouse", "conditions": "treatment from 14th day post-implantation, over time (FIG. 7B)", "experimental": "as §1\nAll blood samples were collected in K2EDTA containing tubes (BD Microtainer, Ref 365974) and centrifuged at 1,500 g for 10 min. Then the supernatants were carefully collected from the top portion of the plasma to eliminate the possibility of cell contaminations. The plasma was stored at −80° C. until further use. The cfDNA was extracted from 100 μL of plasma using NucleoSpin Plasma XS kit (Macherey-Nagel; 740900).\nNucleic acid concentrations in all plasma samples were measured by quantitative polymerase chain reaction (PCR) using the AB7900HT (Applied Biosystems, Foster City, CA, USA) and TaqMan Universal PCR Master Mix (Applied Biosystems) according to the manufacturer's protocol. For quantification of human β-actin genomic DNA in mouse plasma samples, the following custom primers and probe sets were used: […]"}, "[12]": {"tested_on": "HIV-1", "conditions": "cited from earlier work"}, "[13]": {"conditions": "subcutaneous PANC2.13 (FIG. 6D)"}}, "note": "Entries after “also recorded” stand apart in the source; their conditions may differ.", "data": [{"smiles": "CC(=O)O[C@@]12C[C@@H](C)[C@@]3(O)C(C=C(CO)C[C@]4(O)C(=O)C(C)=C[C@@H]34)[C@@H]1C2(C)C", "note": "(some centres unmarked) [prostratin, 12-deoxyphorbol-13-acetate]", "values": [{"measurement": "systemic toxicity (body weight changes)", "setting": "[1]", "value": "no evidence of systemic toxicity; also recorded: no systematically toxic effects"}, {"measurement": "sensitivity to prostratin (cell viability)", "setting": "[2]; H-Ras^V12 or K-Ras^V12-S181D-transformed NIH/3T3 cells (FIG. 5J)", "value": "but not H-Ras^V12 or K-Ras^V12-S181D, -transformed NIH/3T3 cells, were sensitive to prostratin"}, {"measurement": "cell viability", "setting": "[2]; K-Ras^V12-transformed NIH/3T3 cells (FIG. 5J)", "value": "dramatically reduced cell viability"}, {"measurement": "activation of CaMKii", "setting": "[3]; NIH/3T3 cells transformed by K-Ras^V12-S181A mutant or H-Ras^V12 (legend FIG. 5I)", "value": "not K-Ras^V12-S181A mutant or H-Ras^V12"}, {"measurement": "levels of phospho-CaMKii", "setting": "[3]; Ras^V12-transformed cells and human pancreatic cancer cell lines (FIG. 5H-I)", "value": "dramatically elevated levels of phospho-CaMKii"}, {"measurement": "activity of CaMKii", "setting": "[3]; cells transformed by H-Ras^V12 or K-Ras^V12-S181D (FIG. 5I)", "value": "did not alter the activity of CaMKii"}, {"measurement": "tumor promotion", "setting": "[4]", "value": "far less potent for tumor promotion"}, {"measurement": "tumor initiation and tumor size by bioluminescence imaging (BLI)", "setting": "[5]; subcutaneous PANC2.13 (FIG. 6C)", "value": "profoundly suppressed tumor initiation and tumor size"}, {"measurement": "expression of Ki67", "setting": "[5]; [13]", "value": "reduced expression of Ki67"}, {"measurement": "tumor growth rate during therapy", "setting": "[5]; [13]", "value": "dramatically reduced tumor growth rate"}, {"measurement": "average size of established tumors", "setting": "[5]; subcutaneous PANC2.13, vs control group (FIG. 6B)", "value": "much smaller"}, {"measurement": "frequency of tumor formation", "setting": "[5]; subcutaneous xenograft, oral prostratin from one day before implantation, vs vehicle (FIG. 6A)", "value": "significantly reduced the frequency of tumor formation"}, {"measurement": "expression of β-catenin targeted gene LEF1", "setting": "[6]", "value": "reduced the expressions of β-catenin targeted gene, LEF1"}, {"measurement": "expression of Fzd8", "setting": "[7]", "value": "increased expression of Fzd8"}, {"measurement": "initiation of H-Ras^G12V-induced tumors", "setting": "[8]", "value": "no effects"}, {"measurement": "tumorigenicity of K-Ras^V12-transformed cells", "setting": "[9]; administered orally or intra-peritoneally, nude mice (FIG. 13D)", "value": "dramatically suppressed the tumorigenicity"}, {"measurement": "size of subcutaneous tumor derived from K-Ras^V12-NIH/3T3 cells", "setting": "[9]; vs vehicle control (FIG. 13D-E)", "value": "much smaller"}, {"measurement": "phosphor-CaMKii in tumor derived from K-Ras^V12-NIH/3T3 cells", "setting": "[9]; vs vehicle control (FIG. 13E)", "value": "greatly increased phosphor-CaMKii"}, {"measurement": "sizes of orthotopic tumors by BLI", "setting": "[10]; FIG. 6E and FIG. 14B", "value": "dramatically reduced the sizes of orthotopic tumors"}, {"measurement": "metastasis to the peritoneum", "setting": "[10]; FIG. 6E and FIG. 14C", "value": "reduced metastasis to the peritoneum"}, {"measurement": "formation of primary tumors in the pancreas (H&E staining)", "setting": "[10]; FIG. 6F and FIG. 14B", "value": "most of prostratin treated mice did not show formation of primary tumors in the pancreas"}, {"measurement": "Ki67 in orthotopic tumors", "setting": "[10]; FIG. 6G and FIG. 14B", "value": "much lower Ki67"}, {"measurement": "tumor burden in the orthotopic sites", "setting": "[10]; NOD-SCID mice, daily oral treatment, vs control", "value": "lower tumor burden"}, {"measurement": "concentration of human specific cfDNA", "setting": "[11]", "value": "dramatically decreased"}, {"measurement": "CD4 receptor", "setting": "[12]; literature", "value": "down-regulating the CD4 receptor"}, {"measurement": "reactivation of latent HIV-1", "setting": "[12]; memory CD4+ T cells that harbor latent proviruses", "value": "reactivates HIV-1"}]}]}
